From US20190136321A1, “USE OF TRANSLATIONAL PROFILING TO IDENTIFY TARGET MOLECULES FOR THERAPEUTIC TREATMENT” (The Regents of The University of California, priority 2013, published 2019)

Test system: SW620 cells
Test: Ribosome profiling of SW620 cells (transcription, translational rate, translational efficiency)
Format: cell-based, human
Conditions: 8 hours
Protocol: SW620 human colon cancer cells were cultured in DMEM media supplemented with penicillin G (100 U/ml), streptomycin (100 μg/ml), and 10% FBS in a humidified atmosphere of 5% CO2 maintained at 37° C.
SW620 cells (ATCC, passage 12) were seeded at about 75% confluence 24 hrs prior to drug treatment. […] About 6×10^6 cells/10 cm plate and about 1×10^6 cells/well of a 6-well plate were harvested for ribosome profiling and Western blot analysis, respectively, following drug treatment.

SMILES: CC(=O)Nc1cccc(-n2c(=O)n(C3CC3)c(=O)c3c(Nc4ccc(I)cc4F)n(C)c(=O)c(C)c32)c1 [GSK212]
- Profile TE (gene IER3, 250 nM): −0.1 log2 MEKi/DMSO
- Profile rna (gene IER3, 250 nM): −2.2 log2 MEKi/DMSO
- Profile rpf (gene IER3, 250 nM): −2.3 log2 MEKi/DMSO
- Profile TE (gene IL8, 250 nM): 2.4 log2 MEKi/DMSO
- Profile rna (gene IL8, 250 nM): −5.6 log2 MEKi/DMSO
- Profile rpf (gene IL8, 250 nM): −3.2 log2 MEKi/DMSO
- Profile TE (gene LIF, 250 nM): 0.9 log2 MEKi/DMSO
- Profile rna (gene LIF, 250 nM): −1.7 log2 MEKi/DMSO
- Profile rpf (gene LIF, 250 nM): −0.9 log2 MEKi/DMSO
- Profile TE (gene LNK/SH2B3, 250 nM): −0.9 log2 MEKi/DMSO
- Profile rna (gene LNK/SH2B3, 250 nM): 0.2 log2 MEKi/DMSO
- Profile rpf (gene LNK/SH2B3, 250 nM): −0.7 log2 MEKi/DMSO
- Profile TE (gene MAFF, 250 nM): 0.6 log2 MEKi/DMSO
- Profile rna (gene MAFF, 250 nM): −1.7 log2 MEKi/DMSO
- Profile rpf (gene MAFF, 250 nM): −1.1 log2 MEKi/DMSO
- Profile TE (gene MAP2K3, 250 nM): 1.0 log2 MEKi/DMSO
- Profile rna (gene MAP2K3, 250 nM): −1.6 log2 MEKi/DMSO
- Profile rpf (gene MAP2K3, 250 nM): −0.6 log2 MEKi/DMSO
- Profile TE (gene MYC, 250 nM): −0.3 log2 MEKi/DMSO
- Profile rna (gene MYC, 250 nM): −1.3 log2 MEKi/DMSO
- Profile rpf (gene MYC, 250 nM): −1.6 log2 MEKi/DMSO
- Profile TE (gene PHLDA2, 250 nM): 1.1 log2 MEKi/DMSO
- Profile rna (gene PHLDA2, 250 nM): −2.1 log2 MEKi/DMSO
- Profile rpf (gene PHLDA2, 250 nM): −1.1 log2 MEKi/DMSO
- Profile TE (gene PLK3, 250 nM): 0.7 log2 MEKi/DMSO
- Profile rna (gene PLK3, 250 nM): −3.1 log2 MEKi/DMSO
- Profile rpf (gene PLK3, 250 nM): −2.4 log2 MEKi/DMSO
- Profile TE (gene POLR1C, 250 nM): 0.2 log2 MEKi/DMSO
- Profile rna (gene POLR1C, 250 nM): −0.8 log2 MEKi/DMSO
- Profile rpf (gene POLR1C, 250 nM): −0.6 log2 MEKi/DMSO
- Profile TE (gene POLR3G, 250 nM): −0.1 log2 MEKi/DMSO
- Profile rna (gene POLR3G, 250 nM): −0.7 log2 MEKi/DMSO
- Profile rpf (gene POLR3G, 250 nM): −0.8 log2 MEKi/DMSO
- Profile TE (gene PPAN, 250 nM): −0.7 log2 MEKi/DMSO
- Profile rna (gene PPAN, 250 nM): −0.4 log2 MEKi/DMSO
- Profile rpf (gene PPAN, 250 nM): −1.1 log2 MEKi/DMSO
- Profile TE (gene PPAT, 250 nM): −0.3 log2 MEKi/DMSO
- Profile rna (gene PPAT, 250 nM): −0.4 log2 MEKi/DMSO
- Profile rpf (gene PPAT, 250 nM): −0.7 log2 MEKi/DMSO
- Profile TE (gene PYCRL, 250 nM): 0.1 log2 MEKi/DMSO
- Profile rna (gene PYCRL, 250 nM): −0.2 log2 MEKi/DMSO
- Profile rpf (gene PYCRL, 250 nM): 0.0 log2 MEKi/DMSO
- Profile TE (gene RRS1, 250 nM): 0.1 log2 MEKi/DMSO
- Profile rna (gene RRS1, 250 nM): −0.9 log2 MEKi/DMSO
- Profile rpf (gene RRS1, 250 nM): −0.8 log2 MEKi/DMSO
- Profile TE (gene SEMA6A, 250 nM): −1.5 log2 MEKi/DMSO
- Profile rna (gene SEMA6A, 250 nM): 2.3 log2 MEKi/DMSO
- Profile rpf (gene SEMA6A, 250 nM): 0.7 log2 MEKi/DMSO
- Profile TE (gene SLC1A5, 250 nM): −0.3 log2 MEKi/DMSO
- Profile rna (gene SLC1A5, 250 nM): −0.1 log2 MEKi/DMSO
- Profile rpf (gene SLC1A5, 250 nM): −0.5 log2 MEKi/DMSO
- Profile TE (gene SLC4A7, 250 nM): −0.9 log2 MEKi/DMSO
- Profile rna (gene SLC4A7, 250 nM): −0.2 log2 MEKi/DMSO
- Profile rpf (gene SLC4A7, 250 nM): −1.1 log2 MEKi/DMSO
- Profile TE (gene SPRED2, 250 nM): −1.3 log2 MEKi/DMSO
- Profile rna (gene SPRED2, 250 nM): −2.1 log2 MEKi/DMSO
- Profile rpf (gene SPRED2, 250 nM): −3.5 log2 MEKi/DMSO
- Profile TE (gene SPRY2, 250 nM): 0.4 log2 MEKi/DMSO
- Profile rna (gene SPRY2, 250 nM): −1.7 log2 MEKi/DMSO
- Profile rpf (gene SPRY2, 250 nM): −1.3 log2 MEKi/DMSO
- Profile TE (gene SPRY4, 250 nM): −2.0 log2 MEKi/DMSO
- Profile rna (gene SPRY4, 250 nM): −5.2 log2 MEKi/DMSO
- Profile rpf (gene SPRY4, 250 nM): −7.1 log2 MEKi/DMSO
- Profile TE (gene TNC, 250 nM): −1.6 log2 MEKi/DMSO
- Profile rna (gene TNC, 250 nM): 1.1 log2 MEKi/DMSO
- Profile rpf (gene TNC, 250 nM): −0.5 log2 MEKi/DMSO
- Profile TE (gene TNFRSF12A, 250 nM): 0.2 log2 MEKi/DMSO
- Profile rna (gene TNFRSF12A, 250 nM): −2.2 log2 MEKi/DMSO
- Profile rpf (gene TNFRSF12A, 250 nM): −2.0 log2 MEKi/DMSO
- Profile TE (gene WDR3, 250 nM): −1.0 log2 MEKi/DMSO
- Profile rna (gene WDR3, 250 nM): 0.0 log2 MEKi/DMSO
- Profile rpf (gene WDR3, 250 nM): −1.0 log2 MEKi/DMSO
- Profile TE (gene YRDC, 250 nM): 0.1 log2 MEKi/DMSO
- Profile rna (gene YRDC, 250 nM): −0.7 log2 MEKi/DMSO
- Profile rpf (gene YRDC, 250 nM): −0.6 log2 MEKi/DMSO
